Consider 99 compounds from ChEMBL document CHEMBL3507680, “University of Dundee, Gates Library screen for HepG2 cell viability”.

The data set is described as follows: Human HepG2 cell viability assay in 384 well format. The settings on record: HepG2 cells, read-out: Inhibition. Also noted: dose 125 nL, time 70.5 hour; cytotoxicity at 70.5 h: concentration not given beside the values. Type of data set: toxicity, cell-based.

On to `CC(C)CCNC(=O)c1ccc2c(=O)n(-c3ccccc3)cnc2c1`, for which the cytotoxicity at 70.5 h is -25.3%.

`CCCOc1c(Cl)cc(C(=O)N2CCOC23CCN(C)CC3)cc1Cl`: the cytotoxicity at 70.5 h stood at 7.29%.

Turning to `O=C(CCC(=O)N1CCC(c2noc3cc(F)ccc23)CC1)NC1CC1`, the cytotoxicity at 70.5 h was found to be 13.1%.

As to `O=C1CCCC2=C1C(c1ccccc1F)Nc1nonc1N2` (centres undefined), the cytotoxicity at 70.5 h is -3.65%.

On to `CCCc1nc2c(c(C)c(C)n2Cc2ccncc2)c(N)c1CC`, for which the cytotoxicity at 70.5 h was 53.6%.

On to `CC(C)n1nnc2c(sc3nc(N4CCOCC4)c4c(c32)CCC4)c1=O`, for which the cytotoxicity at 70.5 h is -13.1%.

Regarding `Cc1nc(Cc2ccccc2)nc2sc(C(=O)O)c(C)c12`, the cytotoxicity at 70.5 h was -5.63%.

As for `COC(=O)[C@H](C)NC(=O)Cn1ccc2ccc(F)cc21`, the cytotoxicity at 70.5 h is -1.25%.

On to `COc1ccc(S(=O)(=O)NCCCc2nnc3nc(C)cc(C)n23)cc1`, for which the cytotoxicity at 70.5 h was -7.77%.

Consider `CC(C)CCNC(=O)CNC(=O)N1CCc2c([nH]c3ccc(Cl)cc23)C1`, for which the cytotoxicity at 70.5 h was -19.7%.

For the compound `CSCC[C@@H](CO)NC(=O)c1sc(-c2ccc(Cl)cc2)nc1C`, the cytotoxicity at 70.5 h is -11.9%.

Regarding `CC(C)Cc1nc(OCC(=O)O)c(C#N)c2c1CCCC2`, the cytotoxicity at 70.5 h is -7.68%.

On to `O=C(Cc1csc(-c2cccc(Cl)c2)n1)NCc1cccc(C(=O)O)c1`, for which the cytotoxicity at 70.5 h is -14.3%.

As for `Cc1nn2c(NC(=O)CSc3ncccn3)csc2nc1=O`, the cytotoxicity at 70.5 h is -12.6%.

As to `O=C(NC1CCCC1)c1nc(COc2ccc3c(c2)OCO3)no1`, the cytotoxicity at 70.5 h was -9.86%.

Regarding `CN1C(=O)C2(CC(=O)Nc3[nH]ncc32)c2cc(Cl)ccc21` (centres undefined), the cytotoxicity at 70.5 h is -29.3%.

As to `O=C(C1CC1)N(Cc1ccc2cc[nH]c2c1)C1CC1`, the cytotoxicity at 70.5 h was -22.5%.

In the case of `CNc1oc(COc2ccc3c(c2)OCO3)nc1C#N`, the cytotoxicity at 70.5 h is -19.3%.

For the compound `Cc1nnc(SCC(=O)c2cc3c(cc2Cl)NC(=O)C3)o1`, the cytotoxicity at 70.5 h was -31.5%.

Take `COCCNc1nc(N2CCOCC2)nc2nccnc12`: the cytotoxicity at 70.5 h is -4.36%.

Consider `COCCNC(=O)Cn1ccc2cccc(OC)c21`, for which the cytotoxicity at 70.5 h amounted to 8.67%.

On to `Cc1nnc(SC2CCc3ccccc3NC2=O)o1` (centres undefined), for which the cytotoxicity at 70.5 h was -16.3%.

For the compound `COc1cccc(N2Cc3nc(=O)n(Cc4cccc(F)c4)n3C2=O)c1`, the cytotoxicity at 70.5 h is -20.7%.

In the case of `CNC(=O)c1nc(COc2c(C)occc2=O)no1`, the cytotoxicity at 70.5 h was -14.3%.

As to `CC(C)c1nc2oc(C(=O)N3CCOCC3)c(N)c2c2c1CCCC2`, the cytotoxicity at 70.5 h was -16.6%.

Take `Cc1nnc(SCC(=O)c2cc3c(cc2Cl)NC(=O)C3)s1`: the cytotoxicity at 70.5 h is -30.2%.

Take `CC(C)CNC(=O)Cn1ccc2ccccc21`: the cytotoxicity at 70.5 h is -0.252%.

Consider `CN1CCN(S(=O)(=O)c2cccc(S(=O)(=O)C3CCS(=O)(=O)C3)c2)CC1` (centres undefined), for which the cytotoxicity at 70.5 h is -11.1%.

As for `COC(=O)[C@H](CCSC)NC(=O)Cn1ccc2c(Cl)cccc21`, the cytotoxicity at 70.5 h is -17.2%.

In the case of `O=C(Cc1noc(C(=O)NCC2CC2)n1)Nc1cccc(C(F)(F)F)c1`, the cytotoxicity at 70.5 h was -7.55%.

For `Cc1cccnc1NC(=O)C1(n2cnnn2)CCCCC1`, the cytotoxicity at 70.5 h was -30.1%.

With `CSc1nsc(SCC(=O)c2cc3c(cc2Cl)NC(=O)C3)n1`, the cytotoxicity at 70.5 h was -29.3%.

For `COc1ccc2c(ccn2CCC(=O)Nc2ccc(C(N)=O)cc2)c1`, the cytotoxicity at 70.5 h was -7.39%.

For `NC(=O)c1nc(CC(=O)Nc2cccc(C(F)(F)F)c2)no1`, the cytotoxicity at 70.5 h is 0.00692%.

`Cc1sc(-n2cnnn2)c(C(=O)NC(C)C)c1C`: the cytotoxicity at 70.5 h was -10.9%.

For the compound `CSc1sc2c(O)cc(=O)[nH]c2c1C(N)=O`, the cytotoxicity at 70.5 h is 11.3%.

Consider `Nc1nnc(SCC(=O)c2cc3c(cc2Cl)NC(=O)C3)s1`, for which the cytotoxicity at 70.5 h was -25.4%.

As for `CC(C)C[C@H](NC(=O)Cn1ccc2c(Cl)cccc21)C(=O)O`, the cytotoxicity at 70.5 h was -15.2%.

On to `COc1cccc(N2CCN(C(=O)COc3c(C)occc3=O)CC2)c1`, for which the cytotoxicity at 70.5 h came to 10%.

Take `COc1ccc(N2CCN(C(=O)COc3c(C)occc3=O)CC2)cc1`: the cytotoxicity at 70.5 h was found to be 2.1%.

On to `CC(=O)N1CCN(C(=O)c2ccc3ccn(C)c3c2)CC1`, for which the cytotoxicity at 70.5 h is -15.9%.

Take `O=C(c1cc(=O)c(OCc2ccccc2F)co1)N1CCSCC1`: the cytotoxicity at 70.5 h was -3.38%.

As for `CCc1c(C)sc2c1c(N)nc(=O)n2CCCN(C)C`, the cytotoxicity at 70.5 h amounted to 5.31%.

`COc1coc(C(=O)Nc2nc(C)cs2)cc1=O`: the cytotoxicity at 70.5 h is -15.8%.

As to `COc1ccc2c(ccn2CCC(=O)NCc2ccc(C(=O)O)cc2)c1`, the cytotoxicity at 70.5 h is -13.5%.

On to `COc1ccc2cnn(CC(=O)NC3CCCC3)c(=O)c2c1OC`, for which the cytotoxicity at 70.5 h worked out at 2.71%.

In the case of `O=C(c1cc(=O)c(OCc2ccccc2)co1)N1CCSCC1`, the cytotoxicity at 70.5 h was -18.7%.

On to `CCc1c(C)sc2nc3n(CCN4CCCCC4)nc(SC)n3c(=O)c12`, for which the cytotoxicity at 70.5 h worked out at 13.4%.

`CC(C)(CO)Nc1c(NCc2ccccc2)c(=O)c1=O`: the cytotoxicity at 70.5 h turned out to be 0.361%.

In the case of `O=C(COc1coc(CN2CCOCC2)cc1=O)Nc1ccccc1F`, the cytotoxicity at 70.5 h is -12%.

As to `CC(C)(C)n1ncc2c1NC(=O)CSC2c1ccc2c(c1)OCO2` (centres undefined), the cytotoxicity at 70.5 h worked out at 2.42%.

For the compound `CC(C)CCNc1nc(C(=O)NC2CC2)cs1`, the cytotoxicity at 70.5 h is 6.98%.

Consider `O=C(COc1coc(CN2CCCCC2)cc1=O)Nc1cccc(Cl)c1`, for which the cytotoxicity at 70.5 h was -7.03%.

`NC(=O)c1c(SCCN2CCOCC2)sc2c(O)cc(=O)[nH]c12`: the cytotoxicity at 70.5 h amounted to 10.5%.

Take `Cc1nc(NC(=O)c2c(-n3cnnn3)sc(C)c2C)sc1C`: the cytotoxicity at 70.5 h is -8.41%.

On to `O=C(NCC(=O)N1CCCC1)c1nc(Cc2c(Cl)cccc2Cl)no1`, for which the cytotoxicity at 70.5 h was -16.3%.

On to `CS(=O)(=O)N1CCC2(CC1)CN(CCn1cccn1)C(=O)CO2`, for which the cytotoxicity at 70.5 h was found to be 8.7%.

`O=C(c1ccc[nH]1)N1CC2(CCN(c3nccs3)C2)C1`: the cytotoxicity at 70.5 h was -3.73%.

For `O=C1[C@@H]2CCN(CC3CC3)C[C@@H]2OCCN1c1cccnc1`, the cytotoxicity at 70.5 h amounted to 6.28%.

Turning to `Cc1ncc2c(n1)CN(CC(=O)Nc1c(C)nn(C)c1C)CC2`, the cytotoxicity at 70.5 h is -1.17%.

Consider `Cc1nn(C)c(C)c1CC(=O)N1CCCC(n2ccnc2C)C1` (centres undefined), for which the cytotoxicity at 70.5 h is -2.12%.

As for `CN(CC(=O)Nc1cccnc1)C1CCCN(c2cccnn2)C1` (centres undefined), the cytotoxicity at 70.5 h was determined as 31.2%.

As for `CCN1CC(C(=O)NCCOc2ccc3c(c2)OCO3)CC1=O` (centres undefined), the cytotoxicity at 70.5 h is -1.5%.

With `CS(=O)(=O)NCC1CCCCN1C(=O)c1cccc(C(F)(F)F)c1` (centres undefined), the cytotoxicity at 70.5 h is -0.142%.

Take `Cn1ncc2c(=O)[nH]c(CN3CCCC3Cc3ccc(F)cc3)nc21` (centres undefined): the cytotoxicity at 70.5 h came to 1.17%.

With `NC(=O)NCC1CCCCN1C(=O)c1cc(F)cc(F)c1` (centres undefined), the cytotoxicity at 70.5 h was -2.44%.

As for `O=C(CCc1ccsc1)N1CCC(Nc2cccnn2)CC1`, the cytotoxicity at 70.5 h is -3.07%.

In the case of `CCc1nc2n(n1)CC(NCc1cnc(-c3ccccc3)nc1)CC2` (centres undefined), the cytotoxicity at 70.5 h turned out to be 29.3%.

`Cc1ccc(-c2nc(CNC3CCc4ncnn4C3)no2)cc1` (centres undefined): the cytotoxicity at 70.5 h is -1.3%.

Turning to `CCc1nc2n(n1)CC(NCc1noc(-c3ccc(C)cc3)n1)CC2` (centres undefined), the cytotoxicity at 70.5 h is 0.731%.

`Cc1nccn1C1CCCN(C(=O)c2ccc3c(c2)CCC3)C1` (centres undefined): the cytotoxicity at 70.5 h was found to be 0.881%.

Take `Cc1nnc(NC(=O)CN(C)C2CCCN(c3cccnn3)C2)s1` (centres undefined): the cytotoxicity at 70.5 h was 1.26%.

For `COc1ccc(-c2nc(CNC3CCc4nc(C)nn4C3)no2)cc1` (centres undefined), the cytotoxicity at 70.5 h is -3.37%.

On to `COCCCNC(=O)CN(C)C1CCCN(c2cccnn2)C1` (centres undefined), for which the cytotoxicity at 70.5 h was -6.82%.

With `O=C(CCOc1ccccc1F)N1CCCC1Cn1cccn1` (centres undefined), the cytotoxicity at 70.5 h was 0.51%.

For the compound `O=C(CCNc1ncccn1)N1CCC(Nc2cccnn2)CC1`, the cytotoxicity at 70.5 h is -2.9%.

For `CCCc1n[nH]c(C2CN(C(=O)c3ccc[nH]3)CCO2)n1` (centres undefined), the cytotoxicity at 70.5 h was -3.89%.

On to `CCCc1n[nH]c(C2CN(C(=O)c3cccc4cn[nH]c34)CCO2)n1` (centres undefined), for which the cytotoxicity at 70.5 h was -5.95%.

Turning to `Cc1cnn(-c2ccc(C(=O)N3CCCC(n4ccnc4C)C3)cc2)c1` (centres undefined), the cytotoxicity at 70.5 h was -4.35%.

As for `CCCc1nc(CN2CCOC(Cn3cncn3)C2)cs1` (centres undefined), the cytotoxicity at 70.5 h was determined as 22.5%.

`CCCN1CCC(CNC(=O)C2(c3ccccc3)CCC2)C1` (centres undefined): the cytotoxicity at 70.5 h was determined as 18.5%.

As for `CCc1nnc2n1CCN(C(=O)CN(CC)CC)C2`, the cytotoxicity at 70.5 h amounted to 44.6%.

In the case of `Cc1cnn(CC2CN(Cc3csc(C4CCCC4)n3)CCO2)c1` (centres undefined), the cytotoxicity at 70.5 h was -0.185%.

Regarding `CC(C)c1nnc2n1CCN(C(=O)CN(C)Cc1ccccc1)C2`, the cytotoxicity at 70.5 h is -1.56%.

Regarding `COc1cc(C(=O)N(Cc2cnn(C)c2)C(C)C)ccc1C`, the cytotoxicity at 70.5 h is -1.26%.

Consider `CCOc1cc(C(=O)N2CCCC(n3nc(C)nc3C)C2)ccn1` (centres undefined), for which the cytotoxicity at 70.5 h is -3.74%.

On to `CN(C)S(=O)(=O)c1ccc(CN2CCCC2c2ccsc2)o1` (centres undefined), for which the cytotoxicity at 70.5 h was -7.08%.

Consider `CN(C)C(=O)CS(=O)(=O)Cc1cc(Cl)c2c(c1)OCCO2`, for which the cytotoxicity at 70.5 h was 3.21%.

In the case of `CC(NC(=O)NCC1(c2ccc(F)cc2)CC1)c1nncn1C` (centres undefined), the cytotoxicity at 70.5 h was -1.68%.

`COc1cc(C(=O)N(Cc2cnn(C)c2)C(C)C)ccc1OC(C)C`: the cytotoxicity at 70.5 h was 3.17%.

Take `Cc1cc(C)cc(C2(C(=O)NCC3CCN(CC(F)(F)F)C3)CC2)c1` (centres undefined): the cytotoxicity at 70.5 h was -2.93%.

`COc1cc(N2CCC3(CCCN3Cc3ccn(C)n3)CC2)ncn1`: the cytotoxicity at 70.5 h is -3.28%.

Turning to `Cn1cc(C(=O)NC[C@H]2OC[C@@H]3CCN(C4CCOCC4)C[C@@H]32)cn1`, the cytotoxicity at 70.5 h is -3.43%.

Regarding `Cc1ccc(N2CCC3(CC2)CCN(C2CCOC2)CC3)nn1` (centres undefined), the cytotoxicity at 70.5 h was -6.73%.

Take `Cn1nc(CN2CCCC2)c2c1CN(C(=O)Nc1cccc(F)c1)CC2`: the cytotoxicity at 70.5 h is -7.05%.

As to `O=C(NC[C@H]1OC[C@@H]2CCN(C3CCOCC3)C[C@@H]21)c1ccncc1`, the cytotoxicity at 70.5 h was -3%.

With `Cc1noc(C)c1CN1CCc2cnn(C)c2C1COCC1CC1` (centres undefined), the cytotoxicity at 70.5 h was -3.84%.

Take `CN1CCn2c(-c3cnn(C)c3)cnc2C12CCN(CC1CC1)CC2`: the cytotoxicity at 70.5 h is -4.02%.

Turning to `O=C(NCCc1c[nH]c2ccccc12)C1CCC(Cn2cnnn2)CC1` (centres undefined), the cytotoxicity at 70.5 h came to 19.8%.
